Experimental data published in patent US11618743B2, “Herbicidal compounds” (SYNGENTA PARTICIPATIONS AG, priority 2017, dated 2023).

Key:
Experiment in all cases: Post-emergence efficacy, Method A
Type in all cases: in vivo
Eleusine indica (ELEIN) = details: Application rate 500 g/Ha, evaluated after 13 days; for Control of weed species ELEIN after post-emergence application (100=total damage to plant; 0=no damage to plant): Method A; for Control of weed species after post-emergence application, ELEIN: 100=total damage to plant, 0=no damage
Method: (§1) Seeds of a variety of test species were sown in standard soil in pots. After cultivation for 14 days (post-emergence) under controlled conditions in a glasshouse (at 24/16° C., day/night; 14 hours light; 65% humidity), the plants were sprayed with an aqueous spray solution derived from the dissolution of the technical active ingredient formula (I) in a small amount of acetone and a special solvent and emulsifier mixture referred to as IF50 (11.12% Emulsogen EL360 TM+44.44% N-methylpyrrolidone+44.44% Dowanol DPM glycol ether), to create a 50 g/l solution which was then diluted to required concentration using 0.25% or 1% Empicol ESC70 (Sodium lauryl ether sulphate)+1% ammonium sulphate as diluent.
(§2) The test plants were then grown in a glasshouse under controlled conditions (at 24/16° C., day/night; 14 hours light; 65% humidity) and watered twice daily. After 13 days the test was evaluated (100=total damage to plant; 0=no damage to plant).
(§3) Ipomoea hederacea (IPOHE), Euphorbia heterophylla (EPHHL), Chenopodium album (CHEAL), Amaranthus palmeri (AMAPA), Lolium perenne (LOLPE), Digitaria sanguinalis (DIGSA), Eleusine indica (ELEIN), Echinochloa crus-galli (ECHCG), Setaria faberi (SETFA)

Setaria faberi (SETFA) = details: Application rate 500 g/Ha, evaluated after 13 days; for Control of weed species SETFA after post-emergence application (100=total damage to plant; 0=no damage to plant): Method A; for Control of weed species after post-emergence application, SETFA: 100=total damage to plant, 0=no damage
Method: as §1, §2, §3

[1] = system: Digitaria sanguinalis (DIGSA); details: Application rate 500 g/Ha, evaluated after 13 days; for Control of weed species DIGSA after post-emergence application (100=total damage to plant; 0=no damage to plant): Method A; for Control of weed species after post-emergence application, DIGSA: 100=total damage to plant, 0=no damage
Method: as §1, §2, §3

[2] = system: Amaranthus palmeri (AMAPA); details: Application rate 500 g/Ha, evaluated after 13 days; for Control of weed species AMAPA after post-emergence application (100=total damage to plant; 0=no damage to plant): Method A; for Control of weed species after post-emergence application, AMAPA: 100=total damage to plant, 0=no damage
Method: as §1, §2, §3

[3] = system: Echinochloa crus-galli (ECHCG); details: Application rate 500 g/Ha, evaluated after 13 days; for Control of weed species ECHCG after post-emergence application (100=total damage to plant; 0=no damage to plant): Method A; for Control of weed species after post-emergence application, ECHCG: 100=total damage to plant, 0=no damage
Method: as §1, §2, §3

[4] = system: Chenopodium album (CHEAL); details: Application rate 500 g/Ha, evaluated after 13 days; for Control of weed species CHEAL after post-emergence application (100=total damage to plant; 0=no damage to plant): Method A; for Control of weed species after post-emergence application, CHEAL: 100=total damage to plant, 0=no damage
Method: as §1, §2, §3

[5] = system: Euphorbia heterophylla (EPHHL); details: Application rate 500 g/Ha, evaluated after 13 days; for Control of weed species EPHHL after post-emergence application (100=total damage to plant; 0=no damage to plant): Method A; for Control of weed species after post-emergence application, EPHHL: 100=total damage to plant, 0=no damage
Method: as §1, §2, §3

| Structure (SMILES) | Control of weed species ELEIN after post-emergence application (100=total damage to plant; 0=no damage to plant) (Eleusine indica (ELEIN)) | Control of weed species SETFA after post-emergence application (100=total damage to plant; 0=no damage to plant) (Setaria faberi (SETFA)) | Control of weed species DIGSA after post-emergence application (100=total damage to plant; 0=no damage to plant) [1] | Control of weed species AMAPA after post-emergence application (100=total damage to plant; 0=no damage to plant) [2] | Control of weed species ECHCG after post-emergence application (100=total damage to plant; 0=no damage to plant) [3] | Control of weed species CHEAL after post-emergence application (100=total damage to plant; 0=no damage to plant) [4] | Control of weed species EPHHL after post-emergence application (100=total damage to plant; 0=no damage to plant) [5] | Control of weed species after post-emergence application, ELEIN (Eleusine indica (ELEIN)) | Control of weed species after post-emergence application, SETFA (Setaria faberi (SETFA)) | Control of weed species after post-emergence application, DIGSA [1] | Control of weed species after post-emergence application, AMAPA [2] | Control of weed species after post-emergence application, ECHCG [3] | Control of weed species after post-emergence application, CHEAL [4] | Control of weed species after post-emergence application, EPHHL [5] |
| --- | --- | --- | --- | --- | --- | --- | --- | --- | --- | --- | --- | --- | --- | --- |
| O=C(O)CC[n+]1ccc(-c2ccccn2)cn1.O=C([O-])C(F)(F)F [Compound A148] | 40 | 50 | 50 | 100 | 50 | 40 | 60 |  |  |  |  |  |  |  |
| O=C([O-])C(F)(F)F.O=S(=O)(O)CCC[n+]1ccc(-c2cnccn2)cn1 [Compound A10] | 50 | 60 | 60 | 100 | 30 | 100 | 100 |  |  |  |  |  |  |  |
| O=C([O-])C(F)(F)F.OCCC[n+]1ccc(-c2ncccn2)cn1 [Compound A206] |  |  |  |  |  |  |  | 10 | 10 | 20 | 60 | 20 | 90 | 60 |
| Cc1n[n+](CCC(=O)O)ccc1-c1ccccn1.O=C([O-])C(F)(F)F [Compound A145] | 0 | 0 | 10 | 10 | 0 | 10 | 10 |  |  |  |  |  |  |  |
| Nc1cc(-c2cc[n+](CCC(=O)O)nc2)nc(N)n1.O=C([O-])C(F)(F)F [Compound A188] |  |  |  |  |  |  |  | 20 | 30 | 40 | 90 | 50 | 50 | 30 |
| O=C(O)CC[n+]1ccc(-c2ncc(F)cc2F)cn1.O=C([O-])C(F)(F)F [Compound A144] | 20 | 20 | 30 | 20 | 20 | 10 | 20 |  |  |  |  |  |  |  |
| Nc1nccc(-c2cc[n+](CCC(=O)O)nc2)n1.O=C([O-])C(F)(F)F [Compound A160] |  |  |  |  |  |  |  | 80 | 90 | 70 | 100 | 70 | 100 | 90 |
| O=C(O)CC[n+]1ccc(-c2ncc(C(F)(F)F)cn2)cn1.O=C([O-])C(F)(F)F [Compound A129] | 40 | 60 | 60 | 70 | 90 | 50 | 70 |  |  |  |  |  |  |  |
| O=C(O)CC[n+]1ccc(-c2ccc(C(F)(F)F)nn2)cn1.O=C([O-])C(F)(F)F [Compound A126] | 90 | 100 | 80 | 100 | 80 | 80 | 100 |  |  |  |  |  |  |  |
| CC(C(=O)OC(C)(C)C)[n+]1ccc(-c2ncccn2)cn1.O=C([O-])C(F)(F)F (stereo not shown) [Compound A193] |  |  |  |  |  |  |  | 30 | 10 | 30 | 70 | 10 | 60 | 60 |
| CCOC(=O)CC[n+]1ccc(-c2ncccn2)cn1.O=C([O-])C(F)(F)F [Compound A82] | 60 | 60 | 30 | 70 | 30 | 80 | 40 |  |  |  |  |  |  |  |
| O=C(O)CC[n+]1ccc(-c2ncc(C(F)(F)F)cc2Cl)cn1.O=C([O-])C(F)(F)F [Compound A197] |  |  |  |  |  |  |  | 10 | 0 | 20 | 100 | 0 | 10 | 10 |
| O=C(O)CC[n+]1ccc(-c2ccnc(C(F)(F)F)n2)cn1.O=C([O-])C(F)(F)F [Compound A118] | 70 | 70 | 90 | 80 | 40 | 80 | 90 |  |  |  |  |  |  |  |
| O=C(O)CC[n+]1ccc(-c2ccnc(C(F)(F)F)c2)cn1.O=C([O-])C(F)(F)F [Compound A166] |  |  |  |  |  |  |  | 60 | 40 | 70 | 30 | 50 | 50 | 60 |
| COC(=O)CC[n+]1ccc(-c2cccnn2)cn1.O=C([O-])C(F)(F)F [Compound A139] | 100 | 100 | 100 | 80 | 100 | 100 | 90 |  |  |  |  |  |  |  |
| O=C(O)CC[n+]1ccc(-c2ncccc2Cl)cn1.O=C([O-])C(F)(F)F [Compound A149] | 60 | 40 | 50 | 30 | 50 | 40 | 30 |  |  |  |  |  |  |  |
